# Test results reported in ChEMBL document CHEMBL3808324, “Promising Therapeutic Potential of P2X7 Modulators” (ACS Med Chem Lett, 2016).
# Columns and labels:
# [1] = molecular target: T1, P2X purinoceptor 7 (Homo sapiens) (UniProt Q99572); assay: (§1) Antagonist activity against ATP-gated P2X7 receptor in LPS-stimulated human PBMC assessed as reduction in P2X7 agonist 2'(3')-O-(4-benzoylbenzoyl) adenosine 5'-triphosphate-induced IL-1beta at 1 uM incubated for 30 mins after 1 hr pre-treatment with LPS followed by Bz-ATP-stimulation for 1.5 hrs by ELISA; parameters: scale not given: the % may be the effect or the level left
# T1 sequence (whole entry): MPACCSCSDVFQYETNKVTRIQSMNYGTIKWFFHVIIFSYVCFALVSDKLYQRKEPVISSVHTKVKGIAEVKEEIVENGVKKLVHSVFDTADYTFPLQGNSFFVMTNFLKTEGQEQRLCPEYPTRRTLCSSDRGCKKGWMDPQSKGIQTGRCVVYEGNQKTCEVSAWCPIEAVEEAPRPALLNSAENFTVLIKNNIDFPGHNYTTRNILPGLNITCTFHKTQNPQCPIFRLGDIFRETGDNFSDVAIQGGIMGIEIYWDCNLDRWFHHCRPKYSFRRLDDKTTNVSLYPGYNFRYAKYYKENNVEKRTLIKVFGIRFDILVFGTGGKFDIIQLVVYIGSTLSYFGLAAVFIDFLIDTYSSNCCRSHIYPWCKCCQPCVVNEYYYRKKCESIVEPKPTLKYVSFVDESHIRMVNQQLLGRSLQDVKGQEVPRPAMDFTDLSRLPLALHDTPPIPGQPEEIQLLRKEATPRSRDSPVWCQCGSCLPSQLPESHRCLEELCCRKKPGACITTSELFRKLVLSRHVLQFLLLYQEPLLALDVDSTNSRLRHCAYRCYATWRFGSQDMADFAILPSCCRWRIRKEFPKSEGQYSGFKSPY
# [2] = molecular target: T1, P2X purinoceptor 7 (Homo sapiens); assay: as §1, with “at 10” for “at 1”; parameters: scale not given: the % may be the effect or the level left
# P2X purinoceptor 7 = molecular target: T2, P2X purinoceptor 7 (Rattus norvegicus, UniProt Q64663); assay: Antagonist activity against rat recombinant ATP-gated P2X7 receptor expressed in human 1321N1 cells assessed as reduction in BzATP -induced Ca2+ flux pre-incubated for 30 mins before BzATP addition by calcium-4 dye based FLIPR assay; assay type: cell-based
# T2 sequence (Q64663 whole entry): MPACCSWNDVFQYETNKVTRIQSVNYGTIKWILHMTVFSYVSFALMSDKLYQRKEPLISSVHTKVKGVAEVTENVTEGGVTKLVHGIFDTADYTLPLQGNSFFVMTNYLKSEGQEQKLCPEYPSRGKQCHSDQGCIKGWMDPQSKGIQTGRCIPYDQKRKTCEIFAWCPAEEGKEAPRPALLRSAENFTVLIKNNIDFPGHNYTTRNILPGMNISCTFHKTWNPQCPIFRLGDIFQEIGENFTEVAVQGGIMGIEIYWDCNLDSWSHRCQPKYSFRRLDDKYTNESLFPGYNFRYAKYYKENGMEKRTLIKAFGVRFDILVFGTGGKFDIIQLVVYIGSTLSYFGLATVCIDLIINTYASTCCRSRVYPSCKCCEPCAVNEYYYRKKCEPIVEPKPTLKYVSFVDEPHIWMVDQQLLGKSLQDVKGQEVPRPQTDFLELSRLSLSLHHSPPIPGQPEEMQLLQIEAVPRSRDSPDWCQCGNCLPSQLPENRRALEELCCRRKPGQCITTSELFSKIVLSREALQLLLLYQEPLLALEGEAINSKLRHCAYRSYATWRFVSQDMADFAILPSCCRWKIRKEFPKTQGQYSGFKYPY
Activity [1] [%],Activity [2] [%],IC50 (P2X purinoceptor 7) [nM],SMILES
71.8,,,O=C(c1cccc(Cl)c1Cl)N1CCc2c(ncnc2-n2nccn2)C1
14.2,,,O=C(c1cccc(Cl)c1Cl)N1CCc2c(ncnc2-c2ccn[nH]2)C1
26.9,,,O=C(c1cccc(C(F)(F)F)c1Cl)N1CCc2c(ncnc2-c2ccccn2)C1

# Second part, the molecule before the results:
SMILES,Activity [1] [%],Activity [2] [%],IC50 (P2X purinoceptor 7) [nM]
"Cc1nc2c(c(-c3ccn[nH]3)n1)C[C@@H](C)N(C(=O)c1ccc(F)c(C(F)(F)F)c1Cl)C2 (single isomer, unassigned)",,-6.1,
COc1cccc(C(=O)N2Cc3nc(C)nc(-c4ccn[nH]4)c3CC2C)c1F (stereo not drawn),,2,1460
Cc1nc2c(c(-c3c(C)noc3C)n1)CCN(C(=O)c1cccc(C(F)(F)F)c1Cl)C2,104,100,
